# In ChEMBL document CHEMBL3639274, “Compounds for the treatment of neurodegenerative diseases” (2015):
# pIC50, pKi: −log10 of the molar value.
# Target: Microtubule-associated protein tau (Homo sapiens, UniProt P10636)
# Test: Thio S Fluorometry Assay: The Thio S fluorometry assay as a primary screening method to identify tau protein aggregation inhibitors from our small molecule library. Aggregated tau fibrils were prepared in the presence of equimolar ratios of TauRD and heparin (10 μM each) in 20 mM Na-phosphate buffer, pH7.4. The reaction mixture was incubated at 37° C. with shaking (800-1000 rpm) for 22-24 hr (or for 3 days). In the Thio S inhibition assays, test compounds at 0, 0.1, 1, 10 and 100 μM were added at time 0 into the reaction containing TauRD and heparin. The same reaction mixture (+/− increasing concentrations of compounds) but without TauRD were also set up in parallel to serve as background controls. For all test compounds background fluorescence readings were very low, usually <5% of those of the TauRD-containing wells. For each compound, the IC50 was calculated using Prism version 5 software (GraphPad Software) by nonlinear regression [(Log [inhibitor] vs. normalized response; variable slope)].
# Microtubule-associated protein tau, sequence (P10636 whole entry): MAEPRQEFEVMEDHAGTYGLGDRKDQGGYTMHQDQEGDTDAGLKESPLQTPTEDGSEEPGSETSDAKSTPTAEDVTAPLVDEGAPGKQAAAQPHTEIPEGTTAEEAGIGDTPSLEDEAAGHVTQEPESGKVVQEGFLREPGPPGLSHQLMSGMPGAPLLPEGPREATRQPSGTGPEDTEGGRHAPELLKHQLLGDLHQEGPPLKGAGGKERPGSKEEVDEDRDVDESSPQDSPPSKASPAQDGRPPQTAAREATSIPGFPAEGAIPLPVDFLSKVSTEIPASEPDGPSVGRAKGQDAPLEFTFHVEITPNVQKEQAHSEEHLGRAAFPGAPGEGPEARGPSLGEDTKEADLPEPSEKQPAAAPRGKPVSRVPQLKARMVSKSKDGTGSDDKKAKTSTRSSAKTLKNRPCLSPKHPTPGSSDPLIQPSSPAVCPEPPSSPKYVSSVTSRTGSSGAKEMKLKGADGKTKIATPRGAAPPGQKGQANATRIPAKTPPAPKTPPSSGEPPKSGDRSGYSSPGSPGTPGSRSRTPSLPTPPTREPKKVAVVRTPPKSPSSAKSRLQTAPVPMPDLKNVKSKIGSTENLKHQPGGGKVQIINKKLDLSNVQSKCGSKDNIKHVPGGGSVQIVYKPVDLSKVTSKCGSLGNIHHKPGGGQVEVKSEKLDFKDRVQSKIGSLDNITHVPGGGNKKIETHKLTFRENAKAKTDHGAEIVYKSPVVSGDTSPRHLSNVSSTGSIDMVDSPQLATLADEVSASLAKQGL
row,SMILES,pIC50
1,O=C(/C=C/c1ccc(O)c(O)c1)c1ccc(O)c(O)c1,4.67
2,O=C(/C=C/c1ccc(O)c(O)c1)c1cc(O)c(O)cc1Br,4.67
3,Oc1ccc(-c2cc(Br)c(-c3ccc(O)c(O)c3)s2)cc1O,3.68
4,Oc1ccc(-c2nsc(-c3ccc(O)c(O)c3)n2)cc1O,4.99
5,Oc1ccc(-c2nc3cc(O)c(O)cc3o2)cc1O,5.13
6,Oc1ccc(-c2nnc(-c3ccc(O)c(O)c3)o2)cc1O,2.40
7,Oc1ccc(-c2cn(-c3ccc(O)c(O)c3)nn2)cc1O,4.47
8,Oc1ccc(-c2cnc(-c3ccc(O)c(O)c3)o2)cc1O,3.93
9,O=C(/C=C/c1cc(O)c(O)cc1Br)c1ccc(O)c(O)c1,5.04
10,Oc1ccc(Cc2cc(O)c(O)cc2O)cc1O,5.28
11,CC(=O)N1N=C(c2ccc(O)c(O)c2)CC1c1ccc(O)c(O)c1 (stereo not drawn),4.11
12,O=[N+]([O-])c1cc(-c2ccc(O)c(O)c2)ccc1-c1ccc(O)c(O)c1,4.61

# Target: Alpha-synuclein (Homo sapiens, UniProt P37840)
# Test: In order to assess relative binding affinities of the test compounds for aggregated α-synuclein, competition assays were set up with a radiolabeled molecule already known to bind to α-synuclein fibrils and non-radiolabeled test compounds. In order to induce its aggregation, α-synuclein was incubated in phosphate buffered saline (PBS, pH 7.4) at 37° C. for three days with shaking (1,400 rpm). Competitive binding assays were carried out in 12×75 mm borosilicate glass tubes.
row,SMILES,pKi
1,Oc1ccc(-c2cnc(-c3ccc(O)c(O)c3)o2)cc1O,6.18
